Test results reported in patent US20220370416A1, “COMPOUNDS AND METHODS FOR TARGETED DEGRADATION OF KRAS” (Arvinas Operations, Inc., priority 2020, published 2022).

Molecular target: HiBit-KRAS^G12C (Homo sapiens, UniProt P01116, G12C)
Assay: HiBit degradation assay in SW1573 HiBit-KRas^G12C cells
Format: cell-based
Set-up: expressed in transfected cells; host or cells: SW1573 (clone E6), modified pcDNA3.1 vector, TK promoter
Conditions: 0.1% DMSO, 24 hours; for DC50: SW1573 HiBit-KRas^G12C, read-out: KRas^G12C-HIBit (SW1573; 0.1% DMSO) DC50*; for Dmax: SW1573, SW1573 HiBit-KRas^G12C, read-out: KRas^G12C-HiBit (SW1573; 0.1% DMSO) Dmax**
Description: Reagents. SW1573 (CRL-2170) and MiaPaCa-2 (CRL-1420) cells were purchased from ATCC. Both cell lines are […] for the G12C mutation in KRAS. SW1573 cells were cultured in DMEM+F12+Glutamax (+Sodium Bicarbonate, +sodium pyruvate, Thermofisher scientific, #10565) supplemented with 10% FBS (Thermofisher scientific, #2060357) and 1% Antibiotic-Antimycotic (Thermofisher scientific, #15240096). MiaPaCa-2 cells were cultured in DMEM+Glutamax media (Thermofisher scientific, #10566) supplemented with 10% FBS (Thermofisher scientific, #2060357) and 1% Antibiotic-Antimycotic (Thermofisher scientific, #15240096). For degradation assays, 384 well plates were purchased from Corning (Corning® CellBIND® 384-well Flat Clear Bottom Black Polystyrene Microplates, Low Flange, #3770). Gambogic acid was purchased from Selleckchem (#S2448). Alamar blue was purchased from Thermofisher scientific (A50101) and used according to manufacturer instructions. The Nano-Glo® HiBit Lytic Detection System and Nano-Glo® HiBit Blotting System were purchased from Promega (#N3050 and #N2410) and used according to manufacturer instructions.
To create the SW1573 HiBit-KRAS^G12C cell line, the nucleotide sequence encoding the 11 amino acid HiBit tag from Promega (Schwinn, M. K. et al. (2018) CRISPR-mediated tagging of endogenous proteins with a luminescent peptide. ACS Chem. Biol. 13(2), 467-474) was appended to the N-terminus of the KRAS^G12C coding sequence. This synthesized DNA was cloned into a modified pcDNA3.1 vector under the control of the thymidine kinase (TK) promoter. This HiBit-KRAS^G12C expressing plasmid was transfected into parental SW1573 cells and colonies were selected using 400 μg/mL zeocin. The resulting clonal lines were screened for expression of HiBit-KRAS^G12C protein using Nano-Glo® HiBit Blotting System. A luminescent band of the correct size for HiBit-KRAS^G12C was detected in several clones. Clone E6 was selected for further studies.
Either SW1573 HiBit-KRas^G12C or MiaPaCa-2 HiBit-KRas^G12C cells were plated at 9000 cells/well in a 384 well plate (Corning #3770). Exemplary heterobifunctional molecules and positive controls were diluted in the appropriate cell media and applied to the plated cells resulting in a final concentration titration of 10 μM to 20 nM in either 0.1% or 0.5% dimethyl sulfoxide (DMSO). Gambogic acid was used as a positive control for cytotoxicity and titrated from 10 μM to 78 nM. All assays were performed in triplicate. Cells were treated with compounds for 24 hours at 37° C. in an incubator containing 5% CO2. Following treatment, alamar blue was used to determine if any compounds led to a loss in cell viability after 24 hours. The 10× alamar blue reagent was added to a final concentration of 1× as recommended by the manufacturer and cells were returned to the incubator for 4 hours. Plates were then allowed to equilibrate to room temperature and fluorescence was measured using a Perkin-Elmer EnVision. After completion of the fluorescence read, the liquid from each well was removed and the cells were washed with PBS. The Nano-Glo® HiBiT detection reagent was prepared according to the manufacturer's instructions and added to each well after the PBS wash was removed. Following incubation at room temperature for 45 minutes, the luminescence was read using the ultra-sensitive luminescence aperture on the Envision instrument.
Fluorescence values from the alamar blue treatment were normalized to the DMSO only control for each compound titration. We hypothesized that compounds that led to a ≥50% loss in cell viability of the KRAS-independent SW1573 HiBit-KRas^G12C cells were likely generally cytotoxic and loss of HiBit-KRAS^G12C signal from these compounds may be due to lower cell number and not specific KRAS^G12C degradation. These points were therefore excluded from the data analysis for degradation. […]

Chain of HiBit-KRAS^G12C (P01116 1-186 isoform P01116-2 G12C limits assumed): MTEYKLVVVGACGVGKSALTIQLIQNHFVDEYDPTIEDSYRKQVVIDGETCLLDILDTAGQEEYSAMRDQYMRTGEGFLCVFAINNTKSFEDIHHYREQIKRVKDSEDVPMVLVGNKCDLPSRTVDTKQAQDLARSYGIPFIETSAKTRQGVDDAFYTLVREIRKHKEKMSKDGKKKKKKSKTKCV

## C=CC(=O)N1CCN(c2nc(O[C@H](C)CN3CCN(CCCC4CCN(CC(=O)N[C@H](C(=O)N5C[C@H](O)C[C@H]5C(=O)N[C@@H](C)c5ccc(-c6scnc6C)cc5)C(C)(C)C)CC4)CC3)nc3c(F)c(-c4cc(O)cc5ccccc45)c(Cl)cc23)CC1 [Compound 52, (2S,4R)-1-[(2S)-2-{2-[4-(3-{4-[(2R)-2-{[6-chloro-8-fluoro-7-(3-hydroxynaphthalen-1-yl)-4-[4-(prop-2-enoyl)piperazin-1-yl]quinazolin-2-yl]oxy}propyl]piperazin-1-yl}propyl)piperidin-1-yl]acetamido}-3,3-dimethylbutanoyl]-4-hydroxy-N-[(1S)-1-[4-(4-methyl-1,3-thiazol-5-yl)phenyl]ethyl]pyrrolidine-2-carboxamide]
  DC50: > 1000 nM

## C=C(F)C(=O)N1CCN(c2nc(O[C@H](C)CN3CCC(COCC(=O)N[C@H](C(=O)N4C[C@H](O)C[C@H]4C(=O)N[C@@H](C)c4ccc(-c5scnc5C)cc4)C(C)(C)C)CC3)nc3c(F)c(-c4cc(O)cc5ccccc45)c(Cl)cc23)CC1 [Compound 27, (2S,4R)-1-[(2S)-2-[2-({1-[(2R)-2-({6-chloro-8-fluoro-4-[4-(2-fluoroprop-2-enoyl)piperazin-1-yl]-7-(3-hydroxynaphthalen-1-yl)quinazolin-2-yl}oxy)propyl]piperidin-4-yl}methoxy)acetamido]-3,3-dimethylbutanoyl]-4-hydroxy-N-[(1S)-1-[4-(4-methyl-1,3-thiazol-5-yl)phenyl]ethyl]pyrrolidine-2-carboxamide]
  Dmax: < 35%
  DC50: > 1000 nM

## C=CC(=O)N1CCN(c2nc(O[C@H](C)CN3CCC(OCCOCCOCCOCCOCCOCCOCC(=O)N[C@H](C(=O)N4C[C@H](O)C[C@H]4C(=O)N[C@@H](C)c4ccc(-c5scnc5C)cc4)C(C)(C)C)CC3)nc3c(F)c(-c4cc(O)cc5ccccc45)c(Cl)cc23)CC1 [Compound 88, (2S,4R)-1-[(2S)-2-[20-({1-[(2R)-2-{[6-chloro-8-fluoro-7-(3-hydroxynaphthalen-1-yl)-4-[4-(prop-2-enoyl)piperazin-1-yl]quinazolin-2-yl]oxy}propyl]piperidin-4-yl}oxy)-3,6,9,12,15,18-hexaoxaicosanamido]-3,3-dimethylbutanoyl]-4-hydroxy-N-[(1S)-1-[4-(4-methyl-1,3-thiazol-5-yl)phenyl]ethyl]pyrrolidine-2-carboxamide]
  DC50: > 1000 nM

## C=CC(=O)N1CCN(c2nc(OCCN3CCC(OCCOCC(=O)N[C@H](C(=O)N4C[C@H](O)C[C@H]4C(=O)N[C@@H](C)c4ccc(-c5scnc5C)cc4)C(C)(C)C)CC3)nc3c(F)c(-c4cccc5cccc(C)c45)c(Cl)cc23)C[C@@H]1CC#N [Compound 23, (2S,4R)-1-[(2S)-2-{2-[2-({1-[2-({6-chloro-4-[(3S)-3-(cyanomethyl)-4-(prop-2-enoyl)piperazin-1-yl]-8-fluoro-7-(8-methylnaphthalen-1-yl)quinazolin-2-yl}oxy)ethyl]piperidin-4-yl}oxy)ethoxy]acetamido}-3,3-dimethylbutanoyl]-4-hydroxy-N-[(1S)-1-[4-(4-methyl-1,3-thiazol-5-yl)phenyl]ethyl]pyrrolidine-2-carboxamide]
  DC50: > 1000 nM

## C=CC(=O)N1CCN(c2nc(O[C@H](C)CN3CCC(CN4CC5(CN(CC(=O)N[C@H](C(=O)N6C[C@H](O)C[C@H]6C(=O)N[C@@H](C)c6ccc(-c7scnc7C)cc6)C(C)(C)C)C5)C4)CC3)nc3c(F)c(-c4cc(O)cc5ccccc45)c(Cl)cc23)CC1 [Compound 35, (2S,4R)-1-[(2S)-2-{2-[6-({1-[(2R)-2-{[6-chloro-8-fluoro-7-(3-hydroxynaphthalen-1-yl)-4-[4-(prop-2-enoyl)piperazin-1-yl]quinazolin-2-yl]oxy}propyl]piperidin-4-yl}methyl)-2,6-diazaspiro[3.3]heptan-2-yl]acetamido}-3,3-dimethylbutanoyl]-4-hydroxy-N-[(1S)-1-[4-(4-methyl-1,3-thiazol-5-yl)phenyl]ethyl]pyrrolidine-2-carboxamide]
  DC50: > 1000 nM

## C=CC(=O)N1CCN(c2nc(O[C@H](C)CN3CC(COCC(=O)N[C@H](C(=O)N4C[C@H](O)C[C@H]4C(=O)N[C@@H](C)c4ccc(-c5scnc5C)cc4)C(C)(C)C)C3)nc3c(F)c(-c4cc(O)cc5ccccc45)c(Cl)cc23)CC1 [Compound 42, (2S,4R)-1-[(2S)-2-[2-({1-[(2R)-2-{[6-chloro-8-fluoro-7-(3-hydroxynaphthalen-1-yl)-4-[4-(prop-2-enoyl)piperazin-1-yl]quinazolin-2-yl]oxy}propyl]azetidin-3-yl}methoxy)acetamido]-3,3-dimethylbutanoyl]-4-hydroxy-N-[(1S)-1-[4-(4-methyl-1,3-thiazol-5-yl)phenyl]ethyl]pyrrolidine-2-carboxamide]
  Dmax: < 35%
  DC50: > 1000 nM

## C=CC(=O)N1CCN(c2nc(OCCN3CCC(COCC(=O)N[C@H](C(=O)N4C[C@H](O)C[C@H]4C(=O)N[C@@H](C)c4ccc(-c5scnc5C)cc4)C(C)(C)C)CC3)nc3c(F)c(-c4cc(O)cc5ccccc45)c(Cl)cc23)CC1 (atropisomer, axis not shown) [Compound 10, (2S,4R)-1-[(2S)-2-(2-{[1-(2-{[6-chloro-8-fluoro-7-(3-hydroxynaphthalen-1-yl)-4-[4-(prop-2-enoyl)piperazin-1-yl]quinazolin-2-yl]oxy}ethyl)piperidin-4-yl]methoxy}acetamido)-3,3-dimethylbutanoyl]-4-hydroxy-N-[(1S)-1-[4-(4-methyl-1,3-thiazol-5-yl)phenyl]ethyl]pyrrolidine-2-carboxamide]
  DC50: > 1000 nM

## C=CC(=O)N1CCN(c2nc(OC[C@@H]3C[C@@H](OCCOCCOCCOCCOCCOCCOCC(=O)N[C@H](C(=O)N4C[C@H](O)C[C@H]4C(=O)N[C@@H](C)c4ccc(-c5scnc5C)cc4)C(C)(C)C)CN3C)nc3c2CCN(c2cccc4ccccc24)C3)C[C@@H]1CC#N [Compound 81, (2S,4R)-1-[(2S)-2-(20-{[(3R,5S)-5-[({4-[(3S)-3-(cyanomethyl)-4-(prop-2-enoyl)piperazin-1-yl]-7-(naphthalen-1-yl)-5H,6H,7H,8H-pyrido[3,4-d]pyrimidin-2-yl}oxy)methyl]-1-methylpyrrolidin-3-yl]oxy}-3,6,9,12,15,18-hexaoxaicosanamido)-3,3-dimethylbutanoyl]-4-hydroxy-N-[(1S)-1-[4-(4-methyl-1,3-thiazol-5-yl)phenyl]ethyl]pyrrolidine-2-carboxamide]
  DC50: > 1000 nM

## C=C(F)C(=O)N1CCN(c2nc(OCCN3CCC(OCCOc4cc([C@@H](C(=O)N5C[C@H](O)C[C@H]5C(=O)N[C@@H](C)c5ccc(-c6scnc6C)cc5)C(C)C)on4)CC3)nc3c(F)c(-c4cc(O)cc5ccccc45)c(Cl)cc23)C[C@@H]1CC#N [Compound 1, (2S,4R)-1-[(2S)-2-{3-[2-({1-[2-({6-chloro-4-[(3S)-3-(cyanomethyl)-4-(2-fluoroprop-2-enoyl)piperazin-1-yl]-8-fluoro-7-(3-hydroxynaphthalen-1-yl)quinazolin-2-yl}oxy)ethyl]piperidin-4-yl}oxy)ethoxy]-1,2-oxazol-5-yl}-3-methylbutanoyl]-4-hydroxy-N-[(1S)-1-[4-(4-methyl-1,3-thiazol-5-yl)phenyl]ethyl]pyrrolidine-2-carboxamide]
  DC50: > 1000 nM
